Assay results as given in patent US6830894B1, “Compounds and methods for modulating claudin-mediated functions” (Adherex Technologies, Inc., priority 1998, dated 2004).

Tested on: MDCK cell monolayers
Assay: Electrical resistance across MDCK cell monolayer
Assay type: cell-based, canine
Method: Yet another assay evaluates the effect of a modulating agent on the electrical resistance across a monolayer of cells. For example, Madin Darby canine kidney (MDCK) cells can be exposed to the modulating agent dissolved in medium (e.g., at a final concentration of 0.5 mg/ml for a period of 24 hours). The effect on electrical resistance can be measured using standard techniques. This assay evaluates the effect of a modulating agent on tight junction formation in epithelial cells. In general, the presence of 500 μg/mL modulating agent should result in a statistically significant decrease in electrical resistance after 24 hours.
Madin Darby canine kidney (MDCK) cells were plated in Millicells (Millipore, Bedford, Mass.), at a density of 300,000 cells per Millicell, and cultured in Dulbecco's Modified Eagle Medium (DMEM; Sigma, St. Louis, Mo.) containing 5% fetal calf serum (Sigma, St. Louis, Mo.) until monolayers formed. Monolayers were exposed to the modulating agent dissolved in medium. The electrical resistance was measured using the EVOM device (World Precision Instruments, Sarasota, Fla.). At the time of measurement, fresh medium, with or without the modulating agent, may be added to the Millicells.

[1] = cultured for 18 hours, peptide at 0.5 mg/ml, relative to medium alone (Control), FIG. 3

| Substance | mean electrical resistance across MDCK cell monolayers [1] | mean electrical resistance across MDCK cell monolayers (cultured for 24 hours, peptide at various concentrations, versus medium alone (Control), FIG. 4) |
| --- | --- | --- |
| H-WKIYSYAGDN-NH2 [Peptide 119] | did not change the electrical resistance across the monolayer relative to the control | – |
| N—Ac-WKIYSYAGDN-NH2 [Peptide 118] | reduced the electrical resistance across the monolayer | reduced the electrical resistance across the monolayer in a dose dependent manner |
